These results are taken from patent US20140163023A1, “DIHYDROPYRROLO PYRIMIDINE DERIVATIVES AS MTOR INHIBITORS” (Cellzome Limited, priority 2011, published 2014).

The target of one experiment is T1, PI3Kγ (Homo sapiens, UniProt P48736).
T1 construct: endogenous in cells; host or cells: Jurkat (ATCC TIB-152, clone E6-1) and Ramos (ATCC CRL-1596), 1:1 lysate mix
The experiment is described as follows: kinobeads assay, PI3Kγ. It counts as binding. The note with it: 1:1 mix of Jurkat and Ramos cell lysates, read-out: Inhibition values (IC50 in μM) as determined in the kinobeads assay, PI3Kγ. As to the method:
(§1) The compounds of the present invention as described were tested in the mTOR kinobeads assay as described below. Briefly, test compounds (at various concentrations) and the affinity matrix (1:1 mixture of beads with immobilized phenylthiazole ligand 1 and beads with immobilized phenylmorpholin-chromen ligand; WO 2009/098021) were added to cell lysate aliquots and allowed to bind to the proteins in the lysate sample. After the incubation time the beads with captured proteins were separated from the lysate. Bound proteins were then eluted and the presence of mTOR, PI3Kα, PI3Kβ, PI3Kγ, PI3Kδ and DNA-dependent protein kinase (DNA-PK) was detected and quantified using a specific antibody in a dot blot procedure and the Odyssey infrared detection system. Dose response curves for individual kinases were generated and IC50 values calculated. Kinobeads assays for PI3 kinases (WO-A 2008/015013) and for kinase selectivity profiling (WO 2009/098021) have been previously described.
(§2) Washing of Affinity Matrix
(§3) The affinity matrix was washed two times with 15 ml of 1×DP buffer containing 0.2% NP40 (IGEPAL® CA-630, Sigma, #13021) and then resupended in 5.5 ml of 1×DP buffer containing 0.2% NP40 (10% beads slurry).
(§4) 5×DP buffer: 250 mM Tris-HCl pH 7.4, 25% Glycerol, 7.5 mM MgCl2, 750 mM NaCl, 5 mM Na3VO4, filter the 5×-lysis buffer through 0.22 μm filter and store in aliquots at −80° C. The 5×DP buffer is diluted to 1×DP buffer containing 1 mM DTT and 25 mM NaF.
(§5) Preparation of Test Compounds
(§6) Stock solutions of test compounds were prepared in DMSO. In a 96 well plate 30 μl solution of diluted test compounds at 5 mM in DMSO were prepared. Starting with this solution a 1:3 dilution series (9 steps) was prepared. For control experiments (no test compound) a buffer containing 2% DMSO was used. Compound Pi-103 (Calbiochem catalogue number 528100) served as a positive control.
(§7) Cell Culture and Preparation of Cell Lysates
(§8) Jurkat cells (ATCC catalogue number TIB-152 Jurkat, clone E6-1) and Ramos cells (ATCC number CRL-1596) were grown in 1 litre Spinner flasks (Integra Biosciences, #182101) in suspension in RPMI 1640 medium (Invitrogen, #21875-034) supplemented with 10% Fetal Bovine Serum (Invitrogen) at a density between 0.15×10^6 and 1.2×10^6 cells/ml. Cells were harvested by centrifugation, washed once with 1×PBS buffer (Invitrogen, #14190-094) and cell pellets were frozen in liquid nitrogen and subsequently stored at −80° C.
(§9) Cells were homogenized in a Potter S homogenizer in lysis buffer: 50 mM Tris-HCl, 0.8% NP40, 5% glycerol, 150 mM NaCl, 1.5 mM MgCl2, 25 mM NaF, 1 mM sodium vanadate, 1 mM DTT, pH 7.5. One complete EDTA-free tablet (protease inhibitor cocktail, Roche Diagnostics, 1873580) per 25 ml buffer was added. The material was dounced 10 times using a mechanized POTTER S, transferred to 50 ml falcon tubes, incubated for 30 minutes on ice and spun down for 10 min at 20,000 g at 4° C. (10,000 rpm in Sorvall SLA600, precooled). The supernatant was transferred to an ultracentrifuge (UZ)-polycarbonate tube (Beckmann, 355654) and spun for 1 hour at 100.000 g at 4° C. (33.500 rpm in Ti50.2, precooled). The supernatant was transferred again to a fresh 50 ml falcon tube, the protein concentration was determined by a Bradford assay (BioRad) and samples containing 50 mg of protein per aliquot were prepared. The samples were immediately used for experiments or frozen in liquid nitrogen and stored frozen at −80° C.
(§10) Cell lysate (approximately 50 mg protein per plate) was thawed in a water bath at room temperature and then kept on ice. To the thawed cell lysate 1×DP 0.8% NP40 buffer containing protease inhibitors (1 tablet for 25 ml buffer; EDTA-free protease inhibitor cocktail; Roche Diagnostics 1873580) was added in order to reach a final protein concentration of 5 mg/ml total protein. For the kinobeads experiment a 1:1 mix of Jurkat and Ramos cell lysates was used. The diluted cell lysate was stored on ice. […]

A further experiment has as its target T2, PI3Kβ (Homo sapiens, UniProt P42338).
T2 construct: endogenous in cells; host or cells: Jurkat (ATCC TIB-152, clone E6-1) and Ramos (ATCC CRL-1596), 1:1 lysate mix
Briefly: kinobeads assay, PI3Kβ. Type of experiment: binding. The note with it: 1:1 mix of Jurkat and Ramos cell lysates, read-out: Inhibition values (IC50 in μM) as determined in the kinobeads assay, PI3Kβ. The method, then:
as §1, §2, §3, §4, §5, §6, §7, §8, §9, §10

For a further experiment, the target named is T3, PI3Kδ (Homo sapiens, UniProt O00329).
T3 construct: endogenous in cells; host or cells: Jurkat (ATCC TIB-152, clone E6-1) and Ramos (ATCC CRL-1596), 1:1 lysate mix
T3 sequence (O00329 whole entry): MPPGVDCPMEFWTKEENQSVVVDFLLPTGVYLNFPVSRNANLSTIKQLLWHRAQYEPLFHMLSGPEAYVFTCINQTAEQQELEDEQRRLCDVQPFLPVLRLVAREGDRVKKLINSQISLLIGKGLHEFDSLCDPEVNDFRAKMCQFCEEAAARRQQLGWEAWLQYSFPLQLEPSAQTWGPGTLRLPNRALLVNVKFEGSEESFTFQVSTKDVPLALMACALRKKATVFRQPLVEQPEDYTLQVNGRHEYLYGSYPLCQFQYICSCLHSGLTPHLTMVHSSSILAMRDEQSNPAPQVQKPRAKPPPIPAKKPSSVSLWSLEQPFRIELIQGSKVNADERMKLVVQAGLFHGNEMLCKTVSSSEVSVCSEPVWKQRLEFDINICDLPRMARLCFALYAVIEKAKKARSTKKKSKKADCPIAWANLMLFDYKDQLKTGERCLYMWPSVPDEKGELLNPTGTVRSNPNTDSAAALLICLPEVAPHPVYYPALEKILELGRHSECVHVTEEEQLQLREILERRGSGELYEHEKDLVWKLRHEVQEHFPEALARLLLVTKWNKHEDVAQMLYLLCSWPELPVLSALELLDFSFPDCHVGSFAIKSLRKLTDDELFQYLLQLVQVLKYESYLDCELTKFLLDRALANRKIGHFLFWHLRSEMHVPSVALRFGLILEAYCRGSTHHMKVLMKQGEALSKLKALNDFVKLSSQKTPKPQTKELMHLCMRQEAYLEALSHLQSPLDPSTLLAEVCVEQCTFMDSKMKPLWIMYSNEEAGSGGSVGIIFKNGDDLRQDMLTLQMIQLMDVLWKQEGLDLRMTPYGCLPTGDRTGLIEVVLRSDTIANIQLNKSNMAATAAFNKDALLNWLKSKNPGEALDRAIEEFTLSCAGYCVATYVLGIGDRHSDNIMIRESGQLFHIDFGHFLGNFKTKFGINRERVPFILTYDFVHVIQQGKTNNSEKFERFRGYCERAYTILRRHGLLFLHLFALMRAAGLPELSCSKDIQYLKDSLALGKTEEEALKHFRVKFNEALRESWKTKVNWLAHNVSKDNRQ
T3 sequence (P27986 whole entry partner): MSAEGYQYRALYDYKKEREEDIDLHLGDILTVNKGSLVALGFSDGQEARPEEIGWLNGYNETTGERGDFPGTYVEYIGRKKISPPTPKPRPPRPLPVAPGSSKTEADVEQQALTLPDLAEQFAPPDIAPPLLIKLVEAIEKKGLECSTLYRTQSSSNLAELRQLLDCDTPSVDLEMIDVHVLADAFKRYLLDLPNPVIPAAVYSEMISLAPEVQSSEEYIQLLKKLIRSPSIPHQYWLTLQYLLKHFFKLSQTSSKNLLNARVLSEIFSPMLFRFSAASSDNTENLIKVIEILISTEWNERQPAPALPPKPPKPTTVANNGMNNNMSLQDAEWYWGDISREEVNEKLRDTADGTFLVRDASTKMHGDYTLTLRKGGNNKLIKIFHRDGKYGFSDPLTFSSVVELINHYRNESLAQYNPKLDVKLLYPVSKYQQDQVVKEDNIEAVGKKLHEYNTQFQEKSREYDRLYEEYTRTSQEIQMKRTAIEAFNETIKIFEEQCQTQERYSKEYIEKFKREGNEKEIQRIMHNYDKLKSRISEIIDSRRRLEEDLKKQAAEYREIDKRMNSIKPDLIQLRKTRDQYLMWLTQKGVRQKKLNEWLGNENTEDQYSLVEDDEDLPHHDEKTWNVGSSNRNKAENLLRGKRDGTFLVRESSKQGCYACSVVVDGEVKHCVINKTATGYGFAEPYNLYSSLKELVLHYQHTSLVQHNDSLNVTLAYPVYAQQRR
Briefly: kinobeads assay, PI3Kδ. It counts as binding. The conditions noted are these: 1:1 mix of Jurkat and Ramos cell lysates, read-out: Inhibition values (IC50 in μM) as determined in the kinobeads assay, PI3Kδ. The method, then:
as §1, §2, §3, §4, §5, §6, §7, §8, §9, §10

The target of another experiment is T4, PI3Kα (Homo sapiens, UniProt P42336).
T4 construct: endogenous in cells; host or cells: Jurkat (ATCC TIB-152, clone E6-1) and Ramos (ATCC CRL-1596), 1:1 lysate mix
T4 sequence (P42336 whole entry): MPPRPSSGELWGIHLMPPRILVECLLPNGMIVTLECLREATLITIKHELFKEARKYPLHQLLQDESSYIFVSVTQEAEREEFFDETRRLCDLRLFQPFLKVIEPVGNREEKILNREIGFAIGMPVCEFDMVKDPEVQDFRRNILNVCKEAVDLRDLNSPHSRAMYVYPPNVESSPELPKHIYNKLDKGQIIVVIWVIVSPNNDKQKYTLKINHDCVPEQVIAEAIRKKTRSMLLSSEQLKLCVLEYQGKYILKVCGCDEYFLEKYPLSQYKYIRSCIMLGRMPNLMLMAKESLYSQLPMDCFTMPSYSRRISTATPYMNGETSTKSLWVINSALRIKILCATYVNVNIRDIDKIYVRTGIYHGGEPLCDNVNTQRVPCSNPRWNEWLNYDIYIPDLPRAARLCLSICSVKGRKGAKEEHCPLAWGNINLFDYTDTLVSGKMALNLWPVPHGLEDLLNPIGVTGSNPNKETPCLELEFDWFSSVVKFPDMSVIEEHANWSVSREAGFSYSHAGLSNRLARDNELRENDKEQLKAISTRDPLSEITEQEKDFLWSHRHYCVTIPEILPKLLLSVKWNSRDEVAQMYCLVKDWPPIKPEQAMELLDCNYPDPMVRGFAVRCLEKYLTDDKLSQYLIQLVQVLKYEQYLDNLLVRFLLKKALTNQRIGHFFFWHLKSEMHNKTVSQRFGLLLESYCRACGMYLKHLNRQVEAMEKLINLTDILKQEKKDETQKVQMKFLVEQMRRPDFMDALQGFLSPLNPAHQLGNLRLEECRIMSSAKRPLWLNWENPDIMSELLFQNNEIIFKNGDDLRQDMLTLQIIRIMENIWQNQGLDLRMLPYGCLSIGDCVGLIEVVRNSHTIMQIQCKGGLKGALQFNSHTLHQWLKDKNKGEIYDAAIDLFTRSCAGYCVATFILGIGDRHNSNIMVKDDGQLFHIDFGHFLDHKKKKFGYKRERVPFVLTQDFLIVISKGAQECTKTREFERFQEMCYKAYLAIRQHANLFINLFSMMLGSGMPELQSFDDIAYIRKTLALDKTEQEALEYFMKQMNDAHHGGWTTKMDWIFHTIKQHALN
T4 sequence (P27986 whole entry partner): as the sequence (P27986 whole entry partner) above
The experiment is described as follows: kinobeads assay, PI3Kα. The conditions noted are these: 1:1 mix of Jurkat and Ramos cell lysates, read-out: Inhibition values (IC50 in μM) as determined in the kinobeads assay, PI3Kα. Type of experiment: binding. The method, then: as §1, §2, §3, §4, §5, §6, §7, §8, §9, §10

Experiment [1] concerns the target T5, DNA-dependent protein kinase (DNA-PK) (Homo sapiens, UniProt P78527).
T5 construct: endogenous in cells; host or cells: Jurkat (ATCC TIB-152, clone E6-1) and Ramos (ATCC CRL-1596), 1:1 lysate mix
The experiment is described as follows: kinobeads assay, DNA-PK. Type of experiment: binding. The note with it: 1:1 mix of Jurkat and Ramos cell lysates, read-out: Inhibition values (IC50 in μM) as determined in the kinobeads assay, DNA-PK. As to the method:
as §1, §2, §3, §4, §5, §6, §7, §8, §9, §10

For a further experiment, the target named is T6, mTOR (Homo sapiens, UniProt P42345).
T6 construct: endogenous in cells; host or cells: Jurkat (ATCC TIB-152, clone E6-1) and Ramos (ATCC CRL-1596), 1:1 lysate mix
Briefly: mTOR kinobeads assay (competition binding in cell lysate, dot blot detection). The conditions noted are these: 1:1 mix of Jurkat and Ramos cell lysates, read-out: Inhibition values (IC50 in μM) as determined in the kinobeads assay, mTor. As to the method:
Determination of the Effect of the Compounds According to the Invention on mTOR
as §1, §2, §3, §4, §5, §6, §7, §8, §9
Cell lysate (approximately 50 mg protein per plate) was thawed in a water bath at room temperature and then kept on ice. To the thawed cell lysate 1×DP 0.8% NP40 buffer containing protease inhibitors (1 tablet for 25 ml buffer; EDTA-free protease inhibitor cocktail; Roche Diagnostics 1873580) was added in order to reach a final protein concentration of 5 mg/ml total protein. For the kinobeads experiment a 1:1 mix of Jurkat and Ramos cell lysates was used. […]

The structures appear in SMILES notation.

T1 sequence (P48736 whole entry): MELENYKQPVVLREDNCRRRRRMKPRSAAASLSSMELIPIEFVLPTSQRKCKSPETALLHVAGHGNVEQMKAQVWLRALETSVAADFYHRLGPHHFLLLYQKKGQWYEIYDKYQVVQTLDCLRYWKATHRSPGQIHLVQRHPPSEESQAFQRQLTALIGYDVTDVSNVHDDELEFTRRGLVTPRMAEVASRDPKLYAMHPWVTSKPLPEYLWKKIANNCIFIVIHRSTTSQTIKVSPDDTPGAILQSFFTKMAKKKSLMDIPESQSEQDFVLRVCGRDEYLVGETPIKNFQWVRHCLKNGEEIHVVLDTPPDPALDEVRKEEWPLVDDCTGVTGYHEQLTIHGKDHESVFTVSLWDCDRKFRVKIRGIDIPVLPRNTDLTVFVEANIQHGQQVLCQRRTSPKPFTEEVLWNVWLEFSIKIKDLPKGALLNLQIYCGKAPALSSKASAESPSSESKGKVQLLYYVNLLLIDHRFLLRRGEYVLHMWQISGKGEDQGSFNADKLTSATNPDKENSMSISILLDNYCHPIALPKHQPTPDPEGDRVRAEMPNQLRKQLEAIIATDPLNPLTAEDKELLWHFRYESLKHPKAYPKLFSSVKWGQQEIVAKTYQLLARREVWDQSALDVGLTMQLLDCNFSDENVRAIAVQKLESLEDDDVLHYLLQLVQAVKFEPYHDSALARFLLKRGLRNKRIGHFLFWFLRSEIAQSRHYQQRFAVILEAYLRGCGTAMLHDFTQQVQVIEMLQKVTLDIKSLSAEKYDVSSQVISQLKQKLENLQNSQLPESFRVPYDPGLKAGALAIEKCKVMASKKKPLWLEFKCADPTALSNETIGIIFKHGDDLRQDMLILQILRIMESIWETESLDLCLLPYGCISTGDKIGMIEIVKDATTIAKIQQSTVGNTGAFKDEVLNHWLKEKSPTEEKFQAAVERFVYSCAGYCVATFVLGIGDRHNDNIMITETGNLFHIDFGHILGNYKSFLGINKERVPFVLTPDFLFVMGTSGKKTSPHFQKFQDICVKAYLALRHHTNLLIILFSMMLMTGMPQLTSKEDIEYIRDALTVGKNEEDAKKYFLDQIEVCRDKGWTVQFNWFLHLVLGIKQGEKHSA
T2 sequence (P42338 whole entry): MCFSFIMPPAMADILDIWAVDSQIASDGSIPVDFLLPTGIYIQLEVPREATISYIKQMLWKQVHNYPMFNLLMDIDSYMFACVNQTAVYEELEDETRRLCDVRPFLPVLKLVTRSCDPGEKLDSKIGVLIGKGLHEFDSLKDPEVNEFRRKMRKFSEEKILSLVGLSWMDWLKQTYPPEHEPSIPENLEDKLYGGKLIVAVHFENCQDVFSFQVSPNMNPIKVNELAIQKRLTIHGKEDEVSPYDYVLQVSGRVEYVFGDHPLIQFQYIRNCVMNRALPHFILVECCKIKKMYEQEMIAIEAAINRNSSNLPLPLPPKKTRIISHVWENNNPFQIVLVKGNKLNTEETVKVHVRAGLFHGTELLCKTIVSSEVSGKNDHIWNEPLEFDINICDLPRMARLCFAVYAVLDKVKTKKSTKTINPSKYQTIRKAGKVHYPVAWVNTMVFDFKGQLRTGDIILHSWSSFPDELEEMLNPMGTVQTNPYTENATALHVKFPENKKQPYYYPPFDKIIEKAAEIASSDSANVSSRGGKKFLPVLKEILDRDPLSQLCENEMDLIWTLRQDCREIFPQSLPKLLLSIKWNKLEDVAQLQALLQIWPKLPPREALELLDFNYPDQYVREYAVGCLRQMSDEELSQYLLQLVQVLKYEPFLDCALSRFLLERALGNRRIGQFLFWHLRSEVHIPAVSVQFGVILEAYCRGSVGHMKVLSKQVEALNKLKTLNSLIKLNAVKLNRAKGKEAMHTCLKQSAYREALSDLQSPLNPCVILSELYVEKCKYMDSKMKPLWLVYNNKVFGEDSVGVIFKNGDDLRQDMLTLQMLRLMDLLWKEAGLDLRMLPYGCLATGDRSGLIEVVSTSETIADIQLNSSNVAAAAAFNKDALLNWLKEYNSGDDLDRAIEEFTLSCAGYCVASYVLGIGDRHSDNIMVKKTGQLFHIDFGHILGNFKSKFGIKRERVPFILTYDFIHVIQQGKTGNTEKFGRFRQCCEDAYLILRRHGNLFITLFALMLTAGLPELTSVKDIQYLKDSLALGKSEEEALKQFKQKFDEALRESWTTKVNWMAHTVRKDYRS
T2 sequence (P27986 whole entry partner): as the sequence (P27986 whole entry partner) above

What is called IC50 is the concentration that gives 50% inhibition. On to `C[C@H]1COCCN1c1nc2c(c(-c3ccc(NC(=O)Nc4ccncc4)cc3)n1)CNC2` [Example 24, (S)-1-(4-(2-(3-methylmorpholino)-6,7-dihydro-5H-pyrrolo[3,4-d]pyrimidin-4-yl)phenyl)-3-(pyridin-4-yl)urea], for which the IC50 on PI3Kγ was 10 to 100 µM; at PI3Kβ, 10 to 100 µM; at PI3Kδ, 10 to 100 µM; at PI3Kα, 10 to 100 µM; in experiment [1], above 100 µM; on mTOR it was 1 to 10 µM.

As for `C[C@H]1COCCN1c1nc2c(c(-c3ccc(NC(=O)Nc4cccc(O)n4)cc3)n1)CNC2` [Example 25, (S)-1-(6-hydroxypyridin-2-yl)-3-(4-(2-(3-methylmorpholino)-6,7-dihydro-5H-pyrrolo[3,4-d]pyrimidin-4-yl)phenyl)urea], the half-inhibitory concentration (IC50) is 1 to 10 µM at PI3Kγ; 1 to 10 µM at PI3Kβ; 10 to 100 µM on PI3Kδ; 1 to 10 µM on PI3Kα; above 100 µM in experiment [1]; 0.1 to 1 µM at mTOR.

For the molecule `C[C@@H]1COCCN1c1nc2c(c(-c3ccc(NC(=O)NC4CC4)cc3)n1)CNC2` [Example 26, (R)-1-cyclopropyl-3-(4-(2-(3-methylmorpholino)-6,7-dihydro-5H-pyrrolo[3,4-d]pyrimidin-4-yl)phenyl)urea], the IC50 at PI3Kγ was above 100 µM; at PI3Kβ, 10 to 100 µM; on PI3Kδ, 10 to 100 µM; at PI3Kα it was above 100 µM; in experiment [1], above 100 µM; on mTOR, 0.1 to 1 µM.

For `COCC(=O)N1Cc2nc(N3CCOC[C@@H]3C)nc(-c3ccc(NC(=O)NC4CC4)cc3)c2C1` [Example 27, (S)-1-cyclopropyl-3-(4-(6-(2-methoxyacetyl)-2-(3-methylmorpholino)-6,7-dihydro-5H-pyrrolo[3,4-d]pyrimidin-4-yl)phenyl)urea], the 50% inhibitory concentration (IC50) is above 100 µM at PI3Kγ; 10 to 100 µM at PI3Kβ; 10 to 100 µM at PI3Kδ; 10 to 100 µM at PI3Kα; above 100 µM in experiment [1]; 1 to 10 µM on mTOR.

As for `C[C@H]1COCCN1c1nc2c(c(-c3ccc(NC(=O)NC4CC4)cc3)n1)CN(C(=O)CN)C2` [Example 28, (S)-1-(4-(6-(2-aminoacetyl)-2-(3-methylmorpholino)-6,7-dihydro-5H-pyrrolo[3,4-d]pyrimidin-4-yl)phenyl)-3-cyclopropylurea], the IC50 on PI3Kγ was 10 to 100 µM; at PI3Kβ, 10 to 100 µM; at PI3Kδ, 10 to 100 µM; on PI3Kα, 10 to 100 µM; in experiment [1], above 100 µM; at mTOR it was 1 to 10 µM.

As for `C[C@H]1COCCN1c1nc2c(c(-c3ccc(NC(=O)NC4CC4)cc3)n1)CN(C(=O)CCN)C2` [Example 29, (S)-1-(4-(6-(3-aminopropanoyl)-2-(3-methylmorpholino)-6,7-dihydro-5H-pyrrolo[3,4-d]pyrimidin-4-yl)phenyl)-3-cyclopropylurea], the IC50 at PI3Kγ was 10 to 100 µM; at PI3Kβ it was 10 to 100 µM; at PI3Kδ, 10 to 100 µM; on PI3Kα, 10 to 100 µM; in experiment [1], above 100 µM; at mTOR, 1 to 10 µM.

Take `C[C@H]1COCCN1c1nc2c(c(-c3ccc(NC(=O)NC4CC4)cc3)n1)CN(C(=O)CCCN)C2` [Example 30, (S)-1-(4-(6-(4-aminobutanoyl)-2-(3-methylmorpholino)-6,7-dihydro-5H-pyrrolo[3,4-d]pyrimidin-4-yl)phenyl)-3-cyclopropylurea]: the IC50 is above 100 µM at PI3Kγ; 10 to 100 µM at PI3Kβ; 10 to 100 µM on PI3Kδ; 10 to 100 µM at PI3Kα; above 100 µM in experiment [1]; 1 to 10 µM at mTOR.

On to `COCCC(=O)N1Cc2nc(N3CCOC[C@@H]3C)nc(-c3ccc(NC(=O)NC4CC4)cc3)c2C1` [Example 31, (S)-1-cyclopropyl-3-(4-(6-(3-methoxypropanoyl)-2-(3-methylmorpholino)-6,7-dihydro-5H-pyrrolo[3,4-d]pyrimidin-4-yl)phenyl)urea], for which the IC50 at PI3Kγ was above 100 µM; at PI3Kβ it was 10 to 100 µM; on PI3Kδ it was 10 to 100 µM; at PI3Kα, above 100 µM; in experiment [1], above 100 µM; on mTOR, 0.1 to 1 µM.

Consider `C[C@H]1COCCN1c1nc2c(c(-c3ccc(NC(=O)NC4CC4)cc3)n1)CN(C(=O)CCCN(C)C)C2` [Example 32, (S)-1-cyclopropyl-3-(4-(6-(4-(dimethylamino)butanoyl)-2-(3-methylmorpholino)-6,7-dihydro-5H-pyrrolo[3,4-d]pyrimidin-4-yl)phenyl)urea], for which the IC50 at PI3Kγ is 10 to 100 µM; on PI3Kβ, 1 to 10 µM; at PI3Kδ, 10 to 100 µM; at PI3Kα, above 100 µM; in experiment [1] it was 10 to 100 µM; on mTOR, 1 to 10 µM.

Consider `C[C@H]1COCCN1c1nc2c(c(-c3ccc(NC(=O)NC4CC4)cc3)n1)CN(C(=O)C1CCCO1)C2` (stereo partly drawn) [Example 33, 1-cyclopropyl-3-(4-(2-((S)-3-methylmorpholino)-6-(tetrahydrofuran-2-carbonyl)-6,7-dihydro-5H-pyrrolo[3,4-d]pyrimidin-4-yl)phenyl)urea], for which the IC50 at PI3Kγ is above 100 µM; on PI3Kβ, 10 to 100 µM; at PI3Kδ, 10 to 100 µM; at PI3Kα, above 100 µM; in experiment [1], above 100 µM; at mTOR, 1 to 10 µM.

Take `CC(C)N1Cc2nc(N3CCOC[C@@H]3C)nc(-c3ccc(NC(=O)NCCO)cc3)c2C1` [Example 34, (S)-1-(2-hydroxyethyl)-3-(4-(6-isopropyl-2-(3-methylmorpholino)-6,7-dihydro-5H-pyrrolo[3,4-d]pyrimidin-4-yl)phenyl)urea 2,2,2-trifluoroacetate]: the half-inhibitory concentration (IC50) is 10 to 100 µM at PI3Kγ; 10 to 100 µM at PI3Kβ; 10 to 100 µM at PI3Kδ; 10 to 100 µM on PI3Kα; above 100 µM in experiment [1]; 0.1 to 1 µM at mTOR.
